One assay has as its target T1, Odc1p (Saccharomyces cerevisiae, UniProt Q03028).
T1 construct: made in house; host or cells: S. cerevisiae odc1Δodc2Δ (YPH499 background) carrying pYES2-based pODC1; purified from mitochondria on Ni-NTA agarose
T1 sequence (Q03028 1-310): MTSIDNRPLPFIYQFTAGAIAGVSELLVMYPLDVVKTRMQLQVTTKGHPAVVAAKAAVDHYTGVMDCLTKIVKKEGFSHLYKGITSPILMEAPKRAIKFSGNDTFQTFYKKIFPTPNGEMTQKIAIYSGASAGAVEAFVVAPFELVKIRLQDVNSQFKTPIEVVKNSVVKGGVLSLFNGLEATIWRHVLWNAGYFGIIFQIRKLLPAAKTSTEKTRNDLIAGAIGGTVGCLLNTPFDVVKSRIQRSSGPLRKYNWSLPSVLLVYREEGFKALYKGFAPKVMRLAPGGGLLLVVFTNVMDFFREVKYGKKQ
In words: Effect of inhibitors and external compounds on the [14C]oxoglutarate/oxoglutarate exchange by proteoliposomes reconstituted with Odc1p. The assay is classed as biochemical. To be noted: for Inhibition (%) of [14C]oxoglutarate/oxoglutarate exchange: 20 mM internal oxoglutarate, 0.4 mM [14C]oxoglutarate, 45 seconds, inhibitors 4 mM, except mercurials 10 μM, carboxyatractyloside 0.1 mM, N-ethylmaleimide and α-cyanocinnamate 2 mM; for inhibition of [14C]oxoglutarate/oxoglutarate exchange (in words): Table III. How it is done:
FIG. 5. Effect of dicarboxylates and 2-oxodicarboxylates with different carbon chain length on the rate of [^14C]oxoglutarate uptake into proteoliposomes reconstituted with recombinant Odc1p. Proteoliposomes were preloaded with 20 mM oxoglutarate and reconstituted with recombinant Odc1p. Transport was initiated by the addition of 0.4 mM [^14C]oxoglutarate and terminated after 45 seconds. Oxalate, malonate, succinate, glutarate, adipate, pimelate, suberate (▪) and the corresponding 2-oxoacids (●) were added simultaneously with [1^4C]oxoglutarate at 4.0 mM concentration.
(§1) Reconstitution of the ODC proteins into liposomes—Purified ODC proteins were reconstituted by cyclic removal of the detergent with a hydrophobic column (13). The composition of the initial mixture used for reconstitution was: 200 μl of purified isoform (0.3-0.4 μg of protein), 70 μl of 10% Triton X-114, 100 μl of 10% phospholipids in the form of sonicated liposomes, 20 mM oxoglutarate (except where otherwise indicated), 10 mM Pipes (pH 7.0), 0.7 mg of cardiolipin (Sigma) and water to a final volume of 700 μl. These components were mixed thoroughly, and the mixture was recycled 13 times through an Amberlite column (Supelco) (3.0 cm×0.5 cm) preequilibrated with a buffer containing 10 mM Pipes (pH 7.0) and with the substrate at the same concentration as in the starting mixture. All operations were performed at 4° C., except the passages through Amberlite, which were carried out at room temperature.
(§2) External substrate was removed from proteoliposomes on a Sephadex G-75 column preequilibrated with buffer F (50 mM NaCl and 10 mM PIPES, pH 7.0). Transport at 25° C. was started by adding [^14C]oxoglutarate (unless otherwise indicated) to the proteoliposomes, and terminated by addition of 30 mM pyridoxal 5′-phosphate and 10 mM bathophenanthroline (the “inhibitor-stop” method (13)). In controls, inhibitors were added with the labelled substrate. The external radioactivity was removed on Sephadex G-75 and the internal radioactivity was measured. […] The initial rate of transport was calculated in mmol/min per g protein from the time course of isotope equilibration (13). Various other transport activities were also assayed by the inhibitor-stop method. For efflux measurements, the internal substrate pool of the proteoliposomes was made radioactive by carrier-mediated exchange equilibration (13) with 0.1 mM [^14C]oxoglutarate added at high specific radioactivity. After 60 min, the residual external radioactivity was removed by passing the proteoliposomes again through a column of Sephadex G-75. Efflux was started by adding unlabelled external substrate or buffer F alone and terminated by adding the inhibitors indicated above.
(§3) In addition, the ability of non-radioactive potential substrates to inhibit the oxoglutarate/oxoglutarate exchange was examined.
Proteoliposomes were preloaded internally with 20 mM oxoglutarate and transport was initiated by the addition of 0.4 mM [^14C]oxoglutarate.

A further assay deals with T2, Odc2p (Saccharomyces cerevisiae, UniProt Q99297).
T2 construct: made in house; host or cells: S. cerevisiae odc1Δodc2Δ (YPH499 background) carrying pYES2-based pODC2; purified from mitochondria on Ni-NTA agarose
T2 sequence (Q99297 1-307): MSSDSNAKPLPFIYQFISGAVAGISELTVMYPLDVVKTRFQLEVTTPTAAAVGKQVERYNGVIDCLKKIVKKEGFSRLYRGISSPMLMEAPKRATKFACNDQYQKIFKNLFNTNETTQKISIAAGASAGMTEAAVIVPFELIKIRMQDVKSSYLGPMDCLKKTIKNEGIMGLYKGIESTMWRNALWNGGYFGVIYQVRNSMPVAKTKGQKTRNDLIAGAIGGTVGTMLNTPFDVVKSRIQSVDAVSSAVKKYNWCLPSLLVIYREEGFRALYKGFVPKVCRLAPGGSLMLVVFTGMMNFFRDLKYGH
In words: Effect of inhibitors and external compounds on the [14C]oxoglutarate/oxoglutarate exchange by proteoliposomes reconstituted with Odc2p. The following applies: for Inhibition (%) of [14C]oxoglutarate/oxoglutarate exchange: 20 mM internal oxoglutarate, 0.4 mM [14C]oxoglutarate, 45 seconds, inhibitors 4 mM, except mercurials 10 μM, carboxyatractyloside 0.1 mM, N-ethylmaleimide and α-cyanocinnamate 2 mM; for inhibition of [14C]oxoglutarate/oxoglutarate exchange (in words): Table III. Format: biochemical. As for the experimental part:
as §1, §2, §3
Proteoliposomes were preloaded internally with 20 mM oxoglutarate and transport was initiated by the addition of 0.4 mM [^14C]oxoglutarate. The incubation time was 45 seconds. Thiol reagents and α-cyanocinnamate were added 2 min before the labelled substrate; the other inhibitors and external substrates were added together with [^14C]oxoglutarate. The final concentration of the inhibitors was 4 mM, except for mercurials (10 μM), carboxyatractyloside (0.1 mM), N-ethylmaleimide and α-cyanocinnamate (2 mM).

[1] abbreviates: Odc1p, added with 0.4 mM [14C]oxoglutarate, 4.0 mM in FIG. 5, partly data not shown.

Read-outs that look alike come from different tables or passages of the source.

On to `NC(C(=O)O)C(O)C(=O)O` (racemic) [DL-Threo-hydroxyaspartate], for which the “effect of non-radioactive potential substrates on the rate of oxoglutarate uptake (in words)” value is recorded as “no affect” at Odc1p (setting [1]) and “no affect” at Odc2p (Odc2p, data not shown).

With `O=C(O)c1cccc(C(=O)O)c1C(=O)O` [1,2,3-Benzenetricarboxylate], at Odc1p (Odc1p), the “Inhibition (%) of [14C]oxoglutarate/oxoglutarate exchange” value is 41% and the “inhibition of [14C]oxoglutarate/oxoglutarate exchange (in words)” value is listed as “rather mild inhibitory effect”. Further, on Odc2p (Odc2p), the “Inhibition (%) of [14C]oxoglutarate/oxoglutarate exchange” value came to 37% and the “inhibition of [14C]oxoglutarate/oxoglutarate exchange (in words)” value was “rather mild inhibitory effect”.

`CC(=O)CCCC(=O)O` [5-oxohexanoate]: the “effect of oxomonocarboxylates on the rate of uptake of 0.4 mM oxoglutarate (in words)” value is listed as “did not influence” on Odc1p (Odc1p, 8 mM, 20 times greater than the substrate, data not shown) and “did not influence” on Odc2p (Odc2p, 8 mM, 20 times greater than the substrate, data not shown).

As for `CCCCC(C(=O)O)C(=O)O` [Butylmalonate], the “Inhibition (%) of [14C]oxoglutarate/oxoglutarate exchange” value at Odc1p (Odc1p) came to 118%; on Odc2p (Odc2p), 25%. Further, the “inhibition of [14C]oxoglutarate/oxoglutarate exchange (in words)” value on Odc1p (Odc1p) and on Odc2p (Odc2p) was “rather poorly” each time.

Take `C=C1[C@@H]2CC[C@H]3[C@]4(C)C[C@H](O[C@@H]5O[C@H](CO)[C@@H](OS(=O)(=O)O)[C@H](OS(=O)(=O)O)[C@H]5OC(=O)CC(C)C)CC(C(=O)O)(C(=O)O)[C@H]4CC[C@]3(C2)[C@H]1O` [Carboxyatractyloside]: on Odc1p (Odc1p), the “Inhibition (%) of [14C]oxoglutarate/oxoglutarate exchange” value is listed as 7% and the “inhibition of [14C]oxoglutarate/oxoglutarate exchange (in words)” value is “little or no effect”. At Odc2p (Odc2p), the “Inhibition (%) of [14C]oxoglutarate/oxoglutarate exchange” value is recorded as 10% and the “inhibition of [14C]oxoglutarate/oxoglutarate exchange (in words)” value is “little or no effect”.

Consider `O=C(O)[C@@H](O)[C@H](O)C(=O)O` [D-tartrate], for which the “effect of non-radioactive potential substrates on the rate of oxoglutarate uptake (in words)” value was “more efficiently than succinate” on Odc1p (setting [1]) and “more efficiently than succinate” at Odc2p (Odc2p, data not shown).

For `[Cl][Hg][Cl]` [HgCl2, mercuric chloride], on Odc1p (Odc1p), the “Inhibition (%) of [14C]oxoglutarate/oxoglutarate exchange” value was 100% and the “inhibition of [14C]oxoglutarate/oxoglutarate exchange (in words)” value is given as “inhibited strongly”. Besides, at Odc2p (Odc2p), the “Inhibition (%) of [14C]oxoglutarate/oxoglutarate exchange” value worked out at 98% and the “inhibition of [14C]oxoglutarate/oxoglutarate exchange (in words)” value is on record as “inhibited strongly”.

Regarding `O=C(O)[C@H](O)[C@@H](O)C(=O)O` [L-tartrate], the “effect of non-radioactive potential substrates on the rate of oxoglutarate uptake (in words)” value on Odc1p (setting [1]) is on record as “more efficiently than succinate”; on Odc2p (Odc2p, data not shown), “more efficiently than succinate”.

`COC(CNC(=O)c1ccccc1OCC(=O)O)[CH2][Hg][OH]` (stereo not shown) [Mersalyl]: the “inhibition of [14C]oxoglutarate/oxoglutarate exchange (in words)” value at Odc1p (Odc1p) is “inhibited strongly”. On Odc2p (Odc2p), the “Inhibition (%) of [14C]oxoglutarate/oxoglutarate exchange” value stood at 100% and the “inhibition of [14C]oxoglutarate/oxoglutarate exchange (in words)” value is reported as “inhibited strongly”.

As to `CCN1C(=O)C=CC1=O` [N-Ethylmaleimide], the entries for the “Inhibition (%) of [14C]oxoglutarate/oxoglutarate exchange” value at Odc1p (Odc1p) and at Odc2p (Odc2p) were 65% and 43%, respectively. The “inhibition of [14C]oxoglutarate/oxoglutarate exchange (in words)” value against Odc1p (Odc1p) and against Odc2p (Odc2p) was “inhibited considerably” in each case.

As to `O=C(O)CC(C(=O)O)c1ccccc1` (stereo not shown) [Phenylsuccinate], the “Inhibition (%) of [14C]oxoglutarate/oxoglutarate exchange” value is reported as 23% at Odc1p (Odc1p) and 22% at Odc2p (Odc2p). Also, the “inhibition of [14C]oxoglutarate/oxoglutarate exchange (in words)” value at Odc1p (Odc1p) and at Odc2p (Odc2p) was “rather poorly” throughout.

For `C[C@H](N)C(=O)O` [alanine], the “effect of non-radioactive potential substrates on the rate of oxoglutarate uptake (in words)” value at Odc1p (setting [1]) is given as “no effect”; on Odc2p (Odc2p, data not shown), “no effect”.

Take `N=C(N)NCCC[C@H](N)C(=O)O` [arginine]: the “effect of non-radioactive potential substrates on the rate of oxoglutarate uptake (in words)” value on Odc1p and on Odc2p was “no effect” each time.

Turning to `NC(=O)C[C@H](N)C(=O)O` [asparagine], the “effect of non-radioactive potential substrates on the rate of oxoglutarate uptake (in words)” value at Odc1p (setting [1]) was “no effect”; on Odc2p (Odc2p, data not shown), “no effect”.

With `NCC(=O)O` [glycine], the “effect of non-radioactive potential substrates on the rate of oxoglutarate uptake (in words)” value at Odc1p (setting [1]) is recorded as “no effect”; on Odc2p (Odc2p, data not shown), “no effect”.

On to `N[C@@H](Cc1c[nH]cn1)C(=O)O` [histidine], for which the “effect of non-radioactive potential substrates on the rate of oxoglutarate uptake (in words)” value is “no effect” at Odc1p (setting [1]) and “no effect” at Odc2p (Odc2p, data not shown).

With `NCCCC[C@H](N)C(=O)O` [lysine], the “effect of non-radioactive potential substrates on the rate of oxoglutarate uptake (in words)” value on Odc1p (setting [1]) was “no effect”; at Odc2p (Odc2p, data not shown) it was “no effect”.

As to `O=C(O)CC(O)C(=O)O` (stereo not shown) [malate], the “increase of the extent of inhibition of oxoglutarate uptake with respect to the corresponding dicarboxylate” value at Odc1p (Odc1p, C4 hydroxydicarboxylate versus C4 dicarboxylate, not shown) was “about 10 fold”; at Odc2p (Odc2p, C4 hydroxydicarboxylate versus C4 dicarboxylate, not shown), “about 10 fold”.

Turning to `O=S(=O)(O)c1cc[c]([Hg][Cl])cc1` [p-Chloromercuriphenylsulfonate], at Odc1p (Odc1p), the “Inhibition (%) of [14C]oxoglutarate/oxoglutarate exchange” value is given as 98% and the “inhibition of [14C]oxoglutarate/oxoglutarate exchange (in words)” value is given as “inhibited strongly”. Also, on Odc2p (Odc2p), the “Inhibition (%) of [14C]oxoglutarate/oxoglutarate exchange” value is 100% and the “inhibition of [14C]oxoglutarate/oxoglutarate exchange (in words)” value is reported as “inhibited strongly”.

Turning to `N[C@@H](CO)C(=O)O` [serine], the “effect of non-radioactive potential substrates on the rate of oxoglutarate uptake (in words)” value at Odc1p (setting [1]) was “no effect”; on Odc2p (Odc2p, data not shown) it was “no effect”.

With `O=C(O)C(O)C(=O)O` [tartronate], the “effect of non-radioactive potential substrates on the rate of oxoglutarate uptake (in words)” value on Odc1p (setting [1]) is given as “completely ineffective”; on Odc2p (Odc2p, data not shown), “completely ineffective”.

In the case of `C[C@@H](O)[C@H](N)C(=O)O` [threonine], the “effect of non-radioactive potential substrates on the rate of oxoglutarate uptake (in words)” value at Odc1p (setting [1]) is given as “no effect”; at Odc2p (Odc2p, data not shown) it was “no effect”.

As to `CC(C)[C@H](N)C(=O)O` [valine], the “effect of non-radioactive potential substrates on the rate of oxoglutarate uptake (in words)” value on Odc1p (setting [1]) is listed as “no effect”; at Odc2p (Odc2p, data not shown), “no effect”.

(Values after patent US20020155192A1, “Yeast transport isoforms” (priority 2000, published 2002).)
